“Also recorded” adds a separate entry of the source.
Test system: HaCaT cells
Assay: Resazurin assay, HaCaT keratinocyte cell viability
Format: cell-based, human
Conditions: for effect on cell viability at 10 μM: single agent 10 μM, 24 hours (FIG. 1); for concentration at which the compound was found to reduce cell viability: single agent dose response, 24 hours treatment, resazurin (FIG. 1)
Procedure: The spontaneously immortalized, nontumorigenic skin keratinocyte cell line HaCaT was maintained in DMEM supplemented with 5% (v/v) FBS, 0.3 mg/ml glutamine and 0.1 mg/ml gentamicin at 37° C. with 5% CO2 in a humidified atmosphere. Subculture using trypsin-EDTA was performed every 3-4 days with split ratio of 1:3-1:4 to ensure actively proliferating cells.
Cells were seeded in 96 well plates in fully supplemented medium at a density of 3000 cells per well. Following 72 hour of cultivation, the cells were starved of serum in 0.25% FBS/DMEM overnight to halt proliferation, synchronize the cells and to increase cell sensitivity to treatment. Next day, the cells were treated with cPLA2α inhibitor Compound B, Compound A, vitamin D analogue Calcipotriol and corticosteroid hormone receptor agonist Betamethasone dipropionate for 24 hours. Resazurin was added next day according to the manufacturer's instruction (RnD Systems, UK) and left to incubate for […] in incubator at 37° C. with 5% CO2 in a humidified atmosphere before fluorescence was read at 544 nm excitation and 590 nm emission wavelength. The cells were observed under the microscope to evaluate possible morphology changes and signs of stress before addition of resazurin. The experiments were performed in series of 8 wells per treatment and repeated 3 times.

| SMILES | effect on cell viability at 10 μM | concentration at which the compound was found to reduce cell viability [µM] |
| --- | --- | --- |
| C=C1/C(=C\C=C2/CCC[C@]3(C)[C@@H]([C@H](C)/C=C/[C@@H](O)C4CC4)CC[C@@H]23)C[C@@H](O)C[C@@H]1O [Calcipotriol] | no signs of impairment in cell viability; also recorded: no toxicity | 15 |
| CCCCCCCOc1ccc(OCC(=O)c2nc(C(=O)OC)cs2)cc1 [Compound A1] | no toxicity | 20 |
